Measured values taken from patent publication US8785470B2, “Heterocyclic compounds and uses thereof” (Infinity Pharmaceuticals, Inc., priority 2011, dated 2014).
Read-outs that look alike come from different tables or passages of the source.

Key:
PI3Kδ = biological target: T1, PI3Kδ (Homo sapiens, UniProt O00329); test: PI3-Kinase HTRF assay, PI3Kδ; type: biochemical; details: 10 μM ATP, PIP2 at 10 μM
T1 construct: purchased Millipore Corporation 14-604-K
Source text: (§1) A PI3-Kinase HTRF® assay kit (cat No. 33-016) purchased from Millipore Corporation was used to screen compounds provided herein. This assay used specific, high affinity binding of the GRPI pleckstrin homology (PH) domain to PIP3, the product of a Class 1A or 1B PI3 Kinase acting on its physiological substrate PIP2. During the detection phase of the assay, a complex was generated between the GST-tagged PH domain and biotinylated short chain PIP3. The biotinylated PIP3 and the GST-tagged PH domain recruited fluorophores (Streptavidin-Allophycocyanin and Europium-labeled anti-GST respectively) to form the fluorescence resonance energy transfer (FRET) architecture, generating a stable time-resolved FRET signal. The FRET complex was disrupted in a competitive manner by non-biotinylated PIP3, a product formed in the PI3 Kinase assay.
(§2) PI3 Kinase α, β, γ and δ activity was assayed using the PI3 Kinase HTRF® assay kit (catalogue No. 33-016) purchased from Millipore Corporation. Purified recombinant PI3Kα (catalogue No. 14-602-K), PI3Kβ (catalogue No. 14-603-K), PI3Kγ (catalogue No. 14-558-K) and PI3Kδ (catalogue No. 14-604-K) were obtained from Millipore Corporation. Purified recombinant PI3K enzyme was used to catalyze the phosphorylation of phosphatidylinositol 4,5-bisphosphate (PIP2 at 10 μM) to phosphatidylinositol 3,4,5-trisphosphate (PIP3) in the presence of 10 μM ATP. The assay was carried out in 384-well format and detected using a Perkin Elmer EnVision Xcite Multilabel Reader. Emission ratios were converted into percent inhibitions and imported into GraphPad Prism software. The concentration necessary to achieve inhibition of enzyme activity by 50% (IC50) was calculated using concentrations ranging from 20 μM to 0.1 nM (12-point curve). IC50 values were determined using a nonlinear regression model available in GraphPad Prism 5. […]

PI3Kγ = biological target: T2, PI3Kγ (Homo sapiens, UniProt P48736); test: PI3-Kinase HTRF assay, PI3Kγ; type: biochemical; details: 10 μM ATP, PIP2 at 10 μM
T2 construct: purchased Millipore Corporation 14-558-K
Source text: as §1, §2

Balb/c splenic B cells = test: B cell activation and proliferation assay; type: cell-based; details: Mus musculus, read-out: B cell proliferation EC50
Method in brief: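 Read-out is metabolic activity by Alamar Blue reduction (5 h, 560Ex/590Em) after 72 h at 37° C, reported as IC50 or EC50. Compound (0.2% DMSO) was added 30 min before a cocktail holding 10 μg/ml LPS or 5 μg/ml F(ab′)2 anti-IgM with 2 ng/ml mouse IL4. Cells were purified Balb/c splenic B cells, 50.000 per well.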

PI3Kβ = biological target: T3, PI3Kβ (Homo sapiens, UniProt P42338); test: PI3-Kinase HTRF assay, PI3Kβ; type: biochemical; details: bins Greater than 10 μM and Greater than 1 μM to 10 μM; 10 μM ATP, PIP2 at 10 μM
T3 construct: purchased Millipore Corporation 14-603-K
Method in brief: (§3)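 Competitive time-resolved FRET readout of PIP3 formed from 10 μM PIP2 with 10 μM ATP, 1 h at room temperature, by each recombinant human isoform (α, β, γ, δ; 0.25-0.3 μg/ml). Compound (2% DMSO final) was preincubated 15 min with enzyme and substrate; IC50 fitted over 20 μM–0.1 nM, 12 points.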

PI3Kα = biological target: T4, PI3Kα (Homo sapiens, UniProt P42336); test: PI3-Kinase HTRF assay, PI3Kα; type: biochemical; details: 10 μM ATP, PIP2 at 10 μM, read-out: IC50 P13Kα
T4 construct: purchased Millipore Corporation 14-602-K
Method in brief: as §3

[1] = test system: phospho-AKT in RAJI cells (PI3Kδ); test: PI3Kδ selective assay, phospho-AKT in RAJI cells; type: cell-based; details: RAJI cells stimulated with anti-human IgM; read-out: IC50 for phospho-AKT, RAJI cell model
Source text: A compound's ability in selectively inhibiting PI3Kδ can be assessed using RAJI cells, i.e., B lymphocyte cells derived from lymphoma patients. Briefly, serum-starved RAJI cells are stimulated with anti-human IgM, thereby causing signaling through the B-cell receptors, as described in, for example, He et al., Leukemia Research (2009) 33: 798-802. B-cell receptor signaling is important for the activation, differentiation, and survival of B cells and certain B-cell derived cancers. Reduction of phospho-AKT is indicative of compounds that may inhibit B-cell proliferation and function in certain diseases. By monitoring the reduction of phospho-AKT in stimulated RAJI cells (using for example, phospho-AKT antibodies), a compound's potential efficacy in selectively inhibiting PI3Kδ can be assessed.

[2] = test system: phospho-AKT in RAW 264.7 cells (PI3Kγ); test: PI3Kγ selective assay, phospho-AKT in RAW 264.7 cells; type: cell-based; details: Mus musculus, RAW264.7, stimulated with C5a, read-out: IC50 for phospho-AKT, RAW 264.7 cell model
Source text: A compound's ability in selectively inhibiting PI3Kγ can be assessed using RAW264.7 macrophages. Briefly, serum-starved PAW264.7 cells are stimulated with a known GPCR agonist C5a. (See, e.g., Camps et al., Nature Medicine (2005) 11(9): 936-943). Cells can be treated with test compounds prior to, simultaneously with, or subsequent to the stimulation by C5a. RAW 264.7 cells respond to the complement component fragment C5a through activation of the C5a receptor, and the C5a receptor activates macrophages and induces cell migration. Test compounds' ability to inhibit C5a-mediated AKT phosphorylation is indicative of selective inhibition of PI3Kγ. Thus, by monitoring the reduction of phospho-AKT in stimulated RAW 264.7 cells (using for example, phospho-AKT antibodies), a compound's potential efficacy in selectively inhibiting PI3Kγ can be assessed.

[3] = test system: phospho-AKT in 786-O cells (PI3Kβ); test: PI3Kβ selective assay, phospho-AKT in 786-O cells; type: cell-based; details: Homo sapiens, 786-0; ranges between 1 μM and 10 μM and greater than 10 μM; read-out: IC50 for phospho-AKT, 786-O cell model
Source text: A compound's ability in selectively inhibiting PI3Kβ can be assessed using 786-O cells, i.e., human kidney carcinoma cell line. Briefly, 786-O cells, in which PI3Kβ is constitutively active, can be treated with test compounds. Test compounds' ability to inhibit AKT phosphorylation in 786-O cells, therefore, is indicative of selective inhibition of PI3β. Thus, by monitoring the reduction of phospho-AKT in 786-O cells (using for example, phospho-AKT antibodies), a compound's potential efficacy in selectively inhibiting PI3Kβ can be assessed.
Certain compounds provided herein (e.g., Compounds 5, 49, 138, 326, 328, 354, 359, 389, and 391) were tested in 786-O cell model using procedures as described above.

[4] = test system: phospho-AKT in SKOV-3 cells (PI3Kα); test: PI3Kα selective assay, phospho-AKT in SKOV-3 cells; type: cell-based; details: Homo sapiens, SK-OV-3; ranges between 1 μM and 10 μM and greater than 10 μM; read-out: IC50 for phospho-AKT, SKOV-3 cell model
Source text: A compound's ability in selectively inhibiting PI3Kα can be assessed using SKOV-3 cells, i.e., human ovarian carcinoma cell line. Briefly, SKOV-3 cells, in which mutant PI3Kα is constitutively active, can be treated with test compounds. Test compounds' ability to inhibit AKT phosphorylation in SKOV-3 cells, therefore, is indicative of selective inhibition of PI3Kα. Thus, by monitoring the reduction of phospho-AKT in SKOV-3 cells (using for example, phospho-AKT antibodies), a compound's potential efficacy in selectively inhibiting PI3Kα can be assessed.
Certain compounds provided herein (e.g., Compounds 5, 49, 138, 326, 328, 354, 359, 389, and 391) were tested in SKOV-3 cell model using procedures as described above.

[5] = bins Greater than 10 μM and Greater than 1 μM to 10 μM
[6] = column bins 1 μM to 100 nM (given as 100-1000) and Less than 100 nM
[7] = ranges less than 100 nM and between 100 nM and 1 μM (given as 100-1000)

T2 sequence (P48736 whole entry): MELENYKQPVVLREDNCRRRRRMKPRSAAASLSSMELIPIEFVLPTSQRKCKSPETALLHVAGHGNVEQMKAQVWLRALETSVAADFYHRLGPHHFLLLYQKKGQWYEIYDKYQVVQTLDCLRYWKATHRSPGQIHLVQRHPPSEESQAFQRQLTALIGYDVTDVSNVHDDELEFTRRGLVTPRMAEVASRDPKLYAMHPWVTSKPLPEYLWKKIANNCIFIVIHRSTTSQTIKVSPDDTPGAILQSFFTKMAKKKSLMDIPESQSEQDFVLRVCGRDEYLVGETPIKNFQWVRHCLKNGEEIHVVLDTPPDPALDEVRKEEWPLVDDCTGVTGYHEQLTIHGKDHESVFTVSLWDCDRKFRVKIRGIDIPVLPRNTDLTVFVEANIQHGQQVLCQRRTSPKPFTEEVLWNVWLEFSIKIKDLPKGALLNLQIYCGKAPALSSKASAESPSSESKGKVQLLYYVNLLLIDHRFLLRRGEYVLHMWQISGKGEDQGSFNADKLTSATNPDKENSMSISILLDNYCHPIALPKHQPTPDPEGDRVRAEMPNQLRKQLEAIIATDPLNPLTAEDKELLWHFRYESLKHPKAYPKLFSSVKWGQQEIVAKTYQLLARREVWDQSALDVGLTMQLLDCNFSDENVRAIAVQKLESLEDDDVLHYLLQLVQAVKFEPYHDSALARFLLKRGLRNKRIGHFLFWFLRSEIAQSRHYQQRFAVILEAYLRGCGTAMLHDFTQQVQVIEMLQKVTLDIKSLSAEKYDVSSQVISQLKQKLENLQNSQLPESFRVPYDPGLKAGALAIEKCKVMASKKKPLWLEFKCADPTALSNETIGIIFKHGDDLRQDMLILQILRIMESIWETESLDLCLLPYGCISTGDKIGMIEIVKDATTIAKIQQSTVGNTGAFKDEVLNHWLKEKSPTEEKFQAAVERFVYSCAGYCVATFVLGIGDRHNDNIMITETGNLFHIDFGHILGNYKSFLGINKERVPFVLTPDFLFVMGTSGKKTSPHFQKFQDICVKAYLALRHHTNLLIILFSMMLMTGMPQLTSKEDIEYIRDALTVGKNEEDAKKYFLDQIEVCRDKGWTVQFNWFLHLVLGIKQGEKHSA
T3 sequence (P42338 whole entry): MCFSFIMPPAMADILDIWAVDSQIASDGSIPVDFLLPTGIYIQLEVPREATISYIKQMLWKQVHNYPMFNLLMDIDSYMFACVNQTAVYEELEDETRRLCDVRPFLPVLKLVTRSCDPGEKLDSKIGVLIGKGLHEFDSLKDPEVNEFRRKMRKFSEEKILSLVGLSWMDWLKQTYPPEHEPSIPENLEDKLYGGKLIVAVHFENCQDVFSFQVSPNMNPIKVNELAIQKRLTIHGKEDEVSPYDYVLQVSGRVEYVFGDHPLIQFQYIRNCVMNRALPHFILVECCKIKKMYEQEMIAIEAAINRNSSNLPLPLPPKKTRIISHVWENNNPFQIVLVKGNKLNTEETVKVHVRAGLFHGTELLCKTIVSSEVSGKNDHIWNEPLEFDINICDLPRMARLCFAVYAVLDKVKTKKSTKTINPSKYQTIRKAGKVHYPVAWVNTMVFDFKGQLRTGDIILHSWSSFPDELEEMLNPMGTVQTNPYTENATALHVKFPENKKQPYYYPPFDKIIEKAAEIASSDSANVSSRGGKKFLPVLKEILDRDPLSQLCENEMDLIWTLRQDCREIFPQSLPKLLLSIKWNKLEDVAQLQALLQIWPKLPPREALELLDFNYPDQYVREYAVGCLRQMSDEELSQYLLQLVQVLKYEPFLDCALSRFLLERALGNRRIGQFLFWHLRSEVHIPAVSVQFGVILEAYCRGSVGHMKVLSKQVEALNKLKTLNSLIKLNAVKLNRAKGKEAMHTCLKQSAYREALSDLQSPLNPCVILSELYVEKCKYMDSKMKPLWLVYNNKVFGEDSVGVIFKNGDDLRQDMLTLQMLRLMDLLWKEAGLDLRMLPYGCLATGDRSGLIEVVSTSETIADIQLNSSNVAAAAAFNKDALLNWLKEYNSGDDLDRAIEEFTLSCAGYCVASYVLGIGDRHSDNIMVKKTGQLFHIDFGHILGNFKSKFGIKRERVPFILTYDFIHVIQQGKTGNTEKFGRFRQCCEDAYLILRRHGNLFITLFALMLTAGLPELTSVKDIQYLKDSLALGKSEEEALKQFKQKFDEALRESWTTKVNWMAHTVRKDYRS
T3 sequence (P27986 whole entry partner): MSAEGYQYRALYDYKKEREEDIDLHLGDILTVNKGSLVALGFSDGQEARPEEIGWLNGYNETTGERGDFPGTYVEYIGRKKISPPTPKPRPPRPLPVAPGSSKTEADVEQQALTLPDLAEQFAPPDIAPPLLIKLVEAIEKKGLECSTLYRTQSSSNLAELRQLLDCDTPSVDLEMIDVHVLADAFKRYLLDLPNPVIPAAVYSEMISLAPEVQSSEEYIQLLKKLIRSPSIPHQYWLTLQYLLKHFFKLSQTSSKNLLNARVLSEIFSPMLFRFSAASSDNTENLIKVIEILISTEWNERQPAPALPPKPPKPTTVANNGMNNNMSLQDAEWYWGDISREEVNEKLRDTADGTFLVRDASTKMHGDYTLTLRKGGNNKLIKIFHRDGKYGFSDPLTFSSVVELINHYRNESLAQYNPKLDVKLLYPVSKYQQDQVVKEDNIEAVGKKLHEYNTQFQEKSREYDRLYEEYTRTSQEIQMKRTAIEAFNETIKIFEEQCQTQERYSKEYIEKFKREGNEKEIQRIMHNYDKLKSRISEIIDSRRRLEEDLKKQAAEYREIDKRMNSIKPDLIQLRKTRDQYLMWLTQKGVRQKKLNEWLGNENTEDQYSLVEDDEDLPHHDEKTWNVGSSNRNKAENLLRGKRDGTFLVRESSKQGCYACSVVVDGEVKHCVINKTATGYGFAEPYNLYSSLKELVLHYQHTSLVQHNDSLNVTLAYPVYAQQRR
T4 sequence (P42336 whole entry): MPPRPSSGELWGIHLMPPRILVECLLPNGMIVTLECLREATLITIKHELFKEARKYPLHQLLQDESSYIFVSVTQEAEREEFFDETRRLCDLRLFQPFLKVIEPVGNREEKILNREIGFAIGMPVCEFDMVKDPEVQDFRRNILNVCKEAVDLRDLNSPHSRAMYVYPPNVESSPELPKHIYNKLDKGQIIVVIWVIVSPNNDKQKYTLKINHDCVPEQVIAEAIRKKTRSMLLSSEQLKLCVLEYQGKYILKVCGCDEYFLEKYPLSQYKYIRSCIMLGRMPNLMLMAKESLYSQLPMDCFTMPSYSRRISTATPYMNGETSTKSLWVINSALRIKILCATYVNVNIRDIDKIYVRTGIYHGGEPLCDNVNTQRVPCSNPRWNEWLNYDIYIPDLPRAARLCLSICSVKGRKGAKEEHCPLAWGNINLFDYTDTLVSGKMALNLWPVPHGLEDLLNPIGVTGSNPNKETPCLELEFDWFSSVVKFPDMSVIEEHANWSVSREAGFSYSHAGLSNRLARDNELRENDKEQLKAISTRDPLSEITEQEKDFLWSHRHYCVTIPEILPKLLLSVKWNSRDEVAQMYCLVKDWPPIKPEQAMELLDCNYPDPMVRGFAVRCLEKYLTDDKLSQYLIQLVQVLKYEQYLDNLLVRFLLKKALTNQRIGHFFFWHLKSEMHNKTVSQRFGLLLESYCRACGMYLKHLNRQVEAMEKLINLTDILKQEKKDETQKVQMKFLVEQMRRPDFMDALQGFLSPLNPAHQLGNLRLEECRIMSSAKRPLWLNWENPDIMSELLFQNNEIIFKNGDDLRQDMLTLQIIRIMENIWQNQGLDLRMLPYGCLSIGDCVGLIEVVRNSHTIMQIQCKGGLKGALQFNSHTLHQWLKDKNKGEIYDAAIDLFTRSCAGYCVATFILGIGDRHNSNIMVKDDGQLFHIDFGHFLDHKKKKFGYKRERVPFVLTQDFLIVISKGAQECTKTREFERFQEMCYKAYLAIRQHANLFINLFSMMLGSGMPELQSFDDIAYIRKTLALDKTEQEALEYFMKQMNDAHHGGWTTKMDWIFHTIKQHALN
T4 sequence (P27986 whole entry partner): as the sequence (P27986 whole entry partner) above
T1 sequence (O00329 whole entry): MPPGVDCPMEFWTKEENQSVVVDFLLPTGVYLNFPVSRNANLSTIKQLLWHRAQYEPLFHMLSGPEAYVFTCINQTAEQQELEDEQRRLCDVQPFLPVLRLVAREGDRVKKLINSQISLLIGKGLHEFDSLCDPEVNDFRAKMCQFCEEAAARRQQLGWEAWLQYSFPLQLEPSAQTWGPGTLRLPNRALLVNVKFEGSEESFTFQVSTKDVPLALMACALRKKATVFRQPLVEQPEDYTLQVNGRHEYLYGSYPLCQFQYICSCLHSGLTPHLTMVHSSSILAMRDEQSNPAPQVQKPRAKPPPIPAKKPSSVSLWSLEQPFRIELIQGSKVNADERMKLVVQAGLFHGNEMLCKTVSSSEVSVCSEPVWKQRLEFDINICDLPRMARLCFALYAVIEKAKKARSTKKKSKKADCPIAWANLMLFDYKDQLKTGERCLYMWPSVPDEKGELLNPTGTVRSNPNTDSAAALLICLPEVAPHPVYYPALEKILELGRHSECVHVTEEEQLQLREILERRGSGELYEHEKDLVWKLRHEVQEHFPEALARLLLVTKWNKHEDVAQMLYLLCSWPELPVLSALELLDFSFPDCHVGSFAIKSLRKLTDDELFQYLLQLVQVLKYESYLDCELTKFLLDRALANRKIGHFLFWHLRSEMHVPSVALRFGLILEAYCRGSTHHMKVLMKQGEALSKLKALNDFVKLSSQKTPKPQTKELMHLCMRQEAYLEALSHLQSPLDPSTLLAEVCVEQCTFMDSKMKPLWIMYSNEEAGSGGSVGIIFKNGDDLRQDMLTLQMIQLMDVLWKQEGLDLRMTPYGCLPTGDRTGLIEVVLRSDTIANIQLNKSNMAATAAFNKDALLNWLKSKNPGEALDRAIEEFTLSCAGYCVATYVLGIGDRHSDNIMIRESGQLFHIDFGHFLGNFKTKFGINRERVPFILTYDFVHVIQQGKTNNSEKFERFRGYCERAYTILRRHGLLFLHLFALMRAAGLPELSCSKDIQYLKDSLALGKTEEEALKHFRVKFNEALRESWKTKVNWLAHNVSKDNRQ
T1 sequence (P27986 whole entry partner): as the sequence (P27986 whole entry partner) above

IC50 (PI3Kδ; [5]) [nM] | IC50 (PI3Kγ; [5]) [nM] | IC50 [1] [nM] | Compound | other results
1000 to 10000 | 1000 to 10000 | – | C[C@H](Nc1cc(Cl)ncn1)c1cc2cccc(Cl)c2c(=O)n1-c1ccccc1 [Compound 77, (S)-8-chloro-3-(1-(6-chloropyrimidin-4-ylamino)ethyl)-2-phenylisoquinolin-1(2H)-one] | –
1000 to 10000 | 1000 to 10000 | – | C[C@H](Nc1nc(N)ncc1NC(=O)c1ccccc1)c1cc2cccc(Cl)c2c(=O)n1-c1ccccc1 [Compound 175] | –
– | – | – | CCOc1cncc(-c2cccc3cc([C@H](C)Nc4nc(N)ncc4C#N)n(-c4ccccc4)c(=O)c23)c1 [Compound 115] | EC50 (Balb/c splenic B cells; [6]): < 100 nM; IC50 (PI3Kδ; [6]): < 100 nM; IC50 (PI3Kγ; [6]): < 100 nM; IC50 (PI3Kβ): 1 to 10 µM; IC50 (PI3Kα; [6]): 100 to 1000 nM
1000 to 10000 | 1000 to 10000 | – | C[C@H](Nc1nc(N)ncc1C(=O)N1CC(F)(F)C1)c1cc2cccc(Cl)c2c(=O)n1-c1ccccc1 [Compound 434] | –
1000 to 10000 | 1000 to 10000 | < 100 | C[C@H](Nc1nc(N)ncc1C(=O)C1CC1)c1cc2cccc(Cl)c2c(=O)n1-c1ccccc1 [Compound 425] | IC50 [2, 7]: 100 to 1000 nM; IC50 (PI3Kα; [5]): 1000 to 10000 nM
– | 1000 to 10000 | < 100 | COc1ncc(-c2cccc3cc([C@H](C)Nc4ncnc(N)c4C#N)n(-c4ccon4)c(=O)c23)cn1 [Compound 337] | IC50 ([2]; range between 1 μM and 10 μM): 1000 to 10000 nM; IC50 (PI3Kα; [5]): 1000 to 10000 nM
– | 1000 to 10000 | < 100 | COc1ncc(-c2cccc3cc([C@H](C)Nc4nc(N)ncc4C#N)n(-c4ccon4)c(=O)c23)cn1 [Compound 333] | IC50 ([2]; range between 1 μM and 10 μM): 1000 to 10000 nM
– | 1000 to 10000 | – | C[C@H](Nc1nc(Cl)ncc1[N+](=O)[O-])c1cc2cccc(Cl)c2c(=O)n1-c1ccccc1 [Compound 75, (S)-8-chloro-3-(1-(2-chloro-5-nitropyrimidin-4-ylamino)ethyl)-2-phenylisoquinolin-1(2H)-one] | –
1000 to 10000 | 1000 to 10000 | – | COc1cc(N[C@@H](C)c2cc3cccc(Cl)c3c(=O)n2-c2ccccc2)nc(N)n1 [Compound 211] | EC50 (Balb/c splenic B cells; Greater than 1 μM to 10 μM): 1000 to 10000 nM
– | – | < 100 | COc1nc(-c2cnc(N)nc2N[C@@H](C)c2cc3cccc(-c4ccc(=O)n(C)c4)c3c(=O)n2-c2ccccc2)cs1 [Compound 391] | IC50 [2, 7]: 100 to 1000 nM; IC50 [3]: > 10 µM; IC50 [4]: > 10 µM
1000 to 10000 | 1000 to 10000 | – | COc1cc(-c2cccc3cc([C@H](C)Nc4nc(N)ncc4C(=O)N(C)CCO)n(-c4ccccc4)c(=O)c23)ccn1 [Compound 114] | –
1000 to 10000 | 1000 to 10000 | – | COc1cc(-c2cccc3cc([C@H](C)Nc4nc(N)ncc4C(=O)NC4CC4)n(-c4ccccc4)c(=O)c23)ccn1 [Compound 441] | EC50 (Balb/c splenic B cells; Greater than 1 μM to 10 μM): 1000 to 10000 nM
– | 1000 to 10000 | – | C[C@H](Nc1cc(N)ncn1)c1cc2cccc(Cl)c2c(=O)n1-c1ccccc1 [Compound 78, (S)-3-(1-(6-aminopyrimidin-4-ylamino)ethyl)-8-chloro-2-phenylisoquinolin-1(2H)-one] | –
– | 1000 to 10000 | < 100 | C[C@H](Nc1ncnc(N)c1C#N)c1cc2cccc(Cl)c2c(C(=O)NC2CCOCC2)n1 [Compound 353] | IC50 ([2]; range between 1 μM and 10 μM): 1000 to 10000 nM
1000 to 10000 | 1000 to 10000 | – | COc1cc(-c2cccc3cc([C@H](C)Nc4nc(N)ncc4C(=O)N4CCOCC4)n(-c4ccccc4)c(=O)c23)ccn1 [Compound 119] | –
– | 1000 to 10000 | < 100 | Cc1ncc(-c2cccc3cc([C@H](C)Nc4nc(N)ncc4C#N)n(-c4ccon4)c(=O)c23)cn1 [Compound 334] | IC50 ([2]; range between 1 μM and 10 μM): 1000 to 10000 nM
– | 1000 to 10000 | < 100 | COC(=O)c1cccc(-n2c([C@H](C)Nc3nc(N)ncc3C#N)cc3cccc(Cl)c3c2=O)c1 [Compound 316] | IC50 [2, 7]: < 100 nM; IC50 (PI3Kα; [5]): 1000 to 10000 nM
– | – | – | CCc1ncc(-c2cccc3nc([C@H](C)Nc4nc(N)ncc4C#N)n(-c4ccccc4)c(=O)c23)cn1 [Compound 60] | EC50 (Balb/c splenic B cells; [6]): < 100 nM; IC50 (PI3Kδ; [6]): < 100 nM; IC50 (PI3Kγ; [6]): < 100 nM; IC50 (PI3Kβ): > 10 µM; IC50 (PI3Kα; [5]): > 10000 nM
– | – | – | C[C@H](Nc1nc(N)ncc1C#N)c1cc2cccc(-c3cccc(N(C)S(C)(=O)=O)c3)c2c(=O)n1-c1ccccc1 [Compound 153] | EC50 (Balb/c splenic B cells; [6]): < 100 nM; IC50 (PI3Kδ; [6]): < 100 nM; IC50 (PI3Kγ; [6]): < 100 nM; IC50 (PI3Kβ): 1 to 10 µM; IC50 (PI3Kα; [6]): 100 to 1000 nM
1000 to 10000 | 1000 to 10000 | – | C[C@H](Nc1nc(N)ncc1C#N)c1cc2cccc(-c3ccn(C)c(=O)c3)c2c(=O)n1-c1ccccc1 [Compound 182] | –
– | 1000 to 10000 | – | CC(=O)Nc1cnc(N)nc1N[C@@H](C)c1cc2cccc(Cl)c2c(=O)n1-c1ccccc1 [Compound 173] | –
